Experimental data reported in PMC9285882, “A mass spectrometry‐based non‐radioactive differential radial capillary action of ligand assay (DRaCALA) to assess ligand binding to proteins” (Journal of Mass Spectrometry, 2022).

Experiments:
Assay type in all cases: biochemical
[1] = molecular target: T1, YciRFec101 (Escherichia coli, UniProt P77334); experiment: DRaCALA, MALDI-TOF MS and […] read-out; settings: cell lysate; 10 mM Tris pH 8.0, 100 mM NaCl, 5 mM MgCl2 (MALDI) or MgSO4 (32P); room temperature; labelled compound in 32P assay
T1 construct: gene pdeR; full-length GGDEF/EAL protein, cloned in pBAD30, expressed in E. coli Top10, whole cell lysate

[2] = molecular target: BcsE (Escherichia coli, UniProt P37657); experiment: DRaCALA, MALDI-TOF MS read-out; settings: cell lysate; 10 mM Tris pH 8.0, 100 mM NaCl, 5 mM MgCl2; room temperature
[3] = molecular target: T2, YcgR (Escherichia coli, UniProt P76010); experiment: DRaCALA, MALDI-TOF MS read-out; settings: cell lysate; 10 mM Tris pH 8.0, 100 mM NaCl, 5 mM MgCl2; room temperature
T2 construct: cloned in pBAD30, expressed in E. coli Top10, whole cell lysate
T2 sequence (P76010 1-244): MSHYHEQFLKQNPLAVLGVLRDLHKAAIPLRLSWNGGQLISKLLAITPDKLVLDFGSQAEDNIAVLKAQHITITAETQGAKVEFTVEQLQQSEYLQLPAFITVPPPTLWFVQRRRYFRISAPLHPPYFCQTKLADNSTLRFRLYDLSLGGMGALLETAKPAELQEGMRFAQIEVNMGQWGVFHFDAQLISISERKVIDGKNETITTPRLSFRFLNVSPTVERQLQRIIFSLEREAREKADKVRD

Sequence of BcsE (P37657 whole entry): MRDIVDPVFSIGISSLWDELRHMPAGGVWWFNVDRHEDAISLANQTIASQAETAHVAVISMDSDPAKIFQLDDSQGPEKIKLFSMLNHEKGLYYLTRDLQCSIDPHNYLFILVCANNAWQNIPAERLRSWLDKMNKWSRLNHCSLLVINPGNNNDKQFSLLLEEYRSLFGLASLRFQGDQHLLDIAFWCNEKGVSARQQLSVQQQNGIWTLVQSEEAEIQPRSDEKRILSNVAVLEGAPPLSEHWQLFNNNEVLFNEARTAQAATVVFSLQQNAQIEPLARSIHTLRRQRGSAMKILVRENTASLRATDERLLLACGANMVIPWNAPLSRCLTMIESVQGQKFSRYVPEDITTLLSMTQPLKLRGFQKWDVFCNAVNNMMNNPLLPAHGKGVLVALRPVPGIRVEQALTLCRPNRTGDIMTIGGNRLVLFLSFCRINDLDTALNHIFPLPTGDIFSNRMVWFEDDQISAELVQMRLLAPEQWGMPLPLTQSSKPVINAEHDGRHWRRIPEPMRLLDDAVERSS
T1 sequence (P77334 whole entry): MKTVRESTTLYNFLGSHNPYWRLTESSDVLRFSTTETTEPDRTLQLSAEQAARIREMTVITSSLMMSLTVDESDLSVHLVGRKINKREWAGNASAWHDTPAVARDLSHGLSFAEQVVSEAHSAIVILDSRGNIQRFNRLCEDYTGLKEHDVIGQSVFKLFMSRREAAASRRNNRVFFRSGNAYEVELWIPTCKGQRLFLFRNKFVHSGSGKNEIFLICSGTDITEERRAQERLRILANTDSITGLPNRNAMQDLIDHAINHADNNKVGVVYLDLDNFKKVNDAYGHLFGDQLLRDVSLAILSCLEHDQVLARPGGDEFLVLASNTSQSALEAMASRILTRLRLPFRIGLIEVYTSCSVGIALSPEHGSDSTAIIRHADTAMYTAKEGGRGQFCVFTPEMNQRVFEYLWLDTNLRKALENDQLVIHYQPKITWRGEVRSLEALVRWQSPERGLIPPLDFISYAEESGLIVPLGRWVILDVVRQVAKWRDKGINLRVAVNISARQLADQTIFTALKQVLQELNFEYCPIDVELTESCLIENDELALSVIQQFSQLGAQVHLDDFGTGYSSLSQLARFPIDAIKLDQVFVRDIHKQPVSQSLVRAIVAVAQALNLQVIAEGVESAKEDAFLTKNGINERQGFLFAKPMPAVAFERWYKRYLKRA

Nc1nc2c(ncn2[C@@H]2O[C@@H]3COP(=O)(O)O[C@H]4[C@@H](O)[C@H](n5cnc6c(=O)[nH]c(N)nc65)O[C@@H]4COP(=O)(O)O[C@H]3[C@H]2O)c(=O)[nH]1 [cyclic di-GMP]
DRaCALA, MALDI-TOF MS and 32P read-out [1]: YciRFec101 showed increased binding to c‐di‐GMP, while mut1 and mut2 were near vector control
DRaCALA, MALDI-TOF MS read-out [2]: cell lysates expressing the cyclic di‐GMP receptors and incubated with cyclic di‐GMP showed higher counts
DRaCALA, MALDI-TOF MS read-out [3]: cell lysates expressing the cyclic di‐GMP receptors and incubated with cyclic di‐GMP showed higher counts
